# Source: paper PMC9699427 (Viruses, 2022)
# Where two headings read alike, the source gives them in different places.
# Key:
# [1] = Acute toxicity, single intragastric dose; type: in vivo; settings: male and female BALB/C mice
# [2] = tested on: HIV-1IIIB; assay: Anti-HIV-1 activity in the presence of human serum, p24 in C8166; settings: Human immunodeficiency virus 1, C8166, HIV-1IIIB
# [3] = molecular target: T1, CYP1A2 (Homo sapiens, UniProt P05177); assay: Cytochrome P450 inhibition, human liver microsomes, phenacetin
# T1 sequence (P05177 1-516): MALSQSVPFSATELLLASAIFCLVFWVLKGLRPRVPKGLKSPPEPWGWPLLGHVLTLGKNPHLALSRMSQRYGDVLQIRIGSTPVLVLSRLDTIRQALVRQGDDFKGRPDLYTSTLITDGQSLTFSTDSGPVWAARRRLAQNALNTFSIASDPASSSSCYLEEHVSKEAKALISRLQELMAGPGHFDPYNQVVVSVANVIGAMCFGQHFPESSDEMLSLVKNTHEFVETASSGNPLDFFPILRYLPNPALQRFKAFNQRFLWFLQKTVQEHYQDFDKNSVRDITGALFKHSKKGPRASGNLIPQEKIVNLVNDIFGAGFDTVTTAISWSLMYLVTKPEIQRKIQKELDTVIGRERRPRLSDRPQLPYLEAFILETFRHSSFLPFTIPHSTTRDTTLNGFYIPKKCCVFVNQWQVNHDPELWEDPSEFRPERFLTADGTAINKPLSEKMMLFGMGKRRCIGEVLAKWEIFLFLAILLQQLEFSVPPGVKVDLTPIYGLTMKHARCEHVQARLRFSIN
# [4] = molecular target: CYP2C19 (Homo sapiens, UniProt P33261); assay: Cytochrome P450 inhibition, human liver microsomes, S-mephenytoin
# CYP2C19, sequence (P33261 whole entry): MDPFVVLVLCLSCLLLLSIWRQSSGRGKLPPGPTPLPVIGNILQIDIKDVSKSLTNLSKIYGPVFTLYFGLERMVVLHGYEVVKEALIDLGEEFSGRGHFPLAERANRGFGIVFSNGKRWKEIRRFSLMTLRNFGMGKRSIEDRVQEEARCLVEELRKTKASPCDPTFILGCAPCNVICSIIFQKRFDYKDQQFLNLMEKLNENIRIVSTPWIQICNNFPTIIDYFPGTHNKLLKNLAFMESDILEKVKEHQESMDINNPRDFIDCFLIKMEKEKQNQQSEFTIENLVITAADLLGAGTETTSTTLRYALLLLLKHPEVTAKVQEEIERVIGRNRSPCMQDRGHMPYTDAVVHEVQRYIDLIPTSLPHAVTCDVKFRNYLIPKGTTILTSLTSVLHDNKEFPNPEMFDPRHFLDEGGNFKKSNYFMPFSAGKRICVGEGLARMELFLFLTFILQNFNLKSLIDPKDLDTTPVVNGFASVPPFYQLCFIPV
# [5] = Cytotoxicity, MTT assay, C8166 cells; type: cell-based; settings: human, three days, read-out: CC50 (Mean ± SD)
# [6] = tested on: C8166 cells infected with HIV-1IIIB or TZM-bl cells infected with HIV-1YU-2; assay: Combination antiviral activity assay (CompuSyn CI and DRI); type: cell-based
# [7] = molecular target: CYP3A4M (Homo sapiens, UniProt P08684); assay: Cytochrome P450 inhibition, human liver microsomes, midazolam
# CYP3A4M, sequence (P08684 whole entry): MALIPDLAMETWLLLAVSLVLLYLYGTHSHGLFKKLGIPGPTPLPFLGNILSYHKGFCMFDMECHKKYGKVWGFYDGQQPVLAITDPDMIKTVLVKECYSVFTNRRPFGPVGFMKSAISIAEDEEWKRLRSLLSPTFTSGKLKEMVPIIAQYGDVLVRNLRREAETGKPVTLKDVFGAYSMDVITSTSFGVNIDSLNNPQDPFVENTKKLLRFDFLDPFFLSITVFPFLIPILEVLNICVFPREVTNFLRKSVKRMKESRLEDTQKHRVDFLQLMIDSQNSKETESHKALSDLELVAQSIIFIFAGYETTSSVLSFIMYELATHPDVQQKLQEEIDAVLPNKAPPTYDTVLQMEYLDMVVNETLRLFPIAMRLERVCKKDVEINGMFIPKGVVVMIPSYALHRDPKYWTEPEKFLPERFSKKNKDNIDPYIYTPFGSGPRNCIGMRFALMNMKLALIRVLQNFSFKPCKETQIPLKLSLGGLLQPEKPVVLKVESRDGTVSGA
# [8] = Cytotoxicity, MTT assay, PBMCs; type: cell-based; settings: human, PBMC, seven days, read-out: CC50 (Mean ± SD)
# [9] = tested on: HIV-1IIIB chronically infected H9 cells; assay: HIV-1 replication in chronically infected H9/HIV-1IIIB cells, p24; type: cell-based
# [10] = Pharmacokinetics after iv and oral dosing; type: in vivo, BALB/c mice; settings: for half-life: read-out: t1/2z (converted)
# [11] = Cytotoxicity, MTT assay, H9/HIV-1IIIB cells; type: cell-based; settings: human, three days, read-out: CC50 (Mean ± SD)
# [12] = molecular target: CYP2C9 (Homo sapiens, UniProt P11712); assay: Cytochrome P450 inhibition, human liver microsomes, diclofenac
# CYP2C9, sequence (P11712 whole entry): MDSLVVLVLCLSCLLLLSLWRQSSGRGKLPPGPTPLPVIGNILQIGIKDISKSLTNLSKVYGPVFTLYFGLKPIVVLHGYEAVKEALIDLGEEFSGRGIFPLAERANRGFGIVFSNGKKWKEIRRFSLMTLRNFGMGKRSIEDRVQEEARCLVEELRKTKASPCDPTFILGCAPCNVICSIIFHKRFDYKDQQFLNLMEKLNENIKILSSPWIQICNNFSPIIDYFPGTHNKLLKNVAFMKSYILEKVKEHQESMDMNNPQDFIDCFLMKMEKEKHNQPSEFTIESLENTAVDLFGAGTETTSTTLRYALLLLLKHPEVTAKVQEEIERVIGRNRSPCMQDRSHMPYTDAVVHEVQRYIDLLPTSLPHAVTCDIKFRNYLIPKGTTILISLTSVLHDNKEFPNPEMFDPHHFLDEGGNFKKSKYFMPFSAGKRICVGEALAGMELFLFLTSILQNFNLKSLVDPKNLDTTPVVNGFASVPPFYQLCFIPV
# [13] = single drug in combination K-5a2+3TC
# [14] = single drug in combination K-5a2+AZT
# [15] = single drug in combination K-5a2+DC521022
# [16] = single drug in combination K-5a2+DRV
# [17] = single drug in combination K-5a2+DTG
# [18] = single drug in combination K-5a2+ETR
# [19] = single drug in combination K-5a2+FTC
# [20] = single drug in combination K-5a2+MVC
# [21] = single drug in combination K-5a2+RAL
# [22] = single drug in combination K-5a2+T-20
# [23] = single drug in combination K-5a2+TDF
# [24] = mouse, plasma, iv 2 mg/kg, female BALB/c mice
# [25] = mouse, plasma, iv 2 mg/kg, male BALB/c mice
# [26] = mouse, plasma, po 30 mg/kg, female BALB/c mice
# [27] = mouse, plasma, po 30 mg/kg, male BALB/c mice
# [28] = mouse, plasma, po 60 mg/kg, female BALB/c mice
# [29] = mouse, plasma, po 60 mg/kg, male BALB/c mice
# [30] = mouse, plasma, po 120 mg/kg, female BALB/c mice
# [31] = mouse, plasma, po 120 mg/kg, male BALB/c mice
# [32] = po 30 mg/kg, female BALB/c mice
# [33] = po 60 mg/kg, female BALB/c mice
# [34] = po 120 mg/kg, female BALB/c mice
structure (smiles),measurement,setting,value
Cc1cc(C#N)cc(C)c1Oc1nc(NC2CCN(Cc3ccc(S(N)(=O)=O)cc3)CC2)nc2ccsc12 [K-5a2],MTD,"[1]; both, mouse, in vivo, po, 5000 mg/kg, single gavage dose, read-out: Maximum tolerated dose",> 5000 mg/kg
same,Clinical symptoms and body weight,[1]; single gavage dose of 5000 mg/kg,no obvious clinical symptoms and no obvious abnormalities in body weight
same,EC50,"[2]; C8166, p24, 20% human serum",0.00783 ± 0.00173 µM
same,EC50,"[2]; C8166, p24, 40% human serum",0.00787 ± 0.00601 µM
same,IC50,[3],> 50 µM
same,IC50,[4],> 50 µM
same,CC50 at 3 days,[5],> 50 µM
same,DRI Value ED75,[6]; [13],2.79 ± 0.14
same,DRI Value ED90,[6]; [13],2.81 ± 0.58
same,DRI Value ED95,[6]; [13],2.85 ± 0.93
same,DRI Value ED75,[6]; [14],13.26 ± 9.86
same,DRI Value ED90,[6]; [14],7.60 ± 3.58
same,DRI Value ED95,[6]; [14],5.48 ± 2.08
same,DRI Value ED75,[6]; [15],1.61 ± 0.50
same,DRI Value ED90,[6]; [15],1.71 ± 0.48
same,DRI Value ED95,[6]; [15],1.78 ± 0.47
same,DRI Value ED75,[6]; [16],2.26 ± 0.28
same,DRI Value ED90,[6]; [16],2.57 ± 0.19
same,DRI Value ED95,[6]; [16],2.85 ± 0.57
same,DRI Value ED75,[6]; [17],1.69 ± 0.37
same,DRI Value ED90,[6]; [17],1.94 ± 0.10
same,DRI Value ED95,[6]; [17],2.19 ± 0.50
same,DRI Value ED75,[6]; [18],1.47 ± 0.24
same,DRI Value ED90,[6]; [18],1.40 ± 0.12
same,DRI Value ED95,[6]; [18],1.35 ± 0.07
same,DRI Value ED75,[6]; [19],5.00 ± 0.71
same,DRI Value ED90,[6]; [19],3.58 ± 0.51
same,DRI Value ED95,[6]; [19],2.85 ± 0.41
same,DRI Value ED75,[6]; [20],1.30 ± 0.17
same,DRI Value ED90,[6]; [20],1.28 ± 0.15
same,DRI Value ED95,[6]; [20],1.27 ± 0.15
same,DRI Value ED75,[6]; [21],2.45 ± 0.95
same,DRI Value ED90,[6]; [21],2.47 ± 0.85
same,DRI Value ED95,[6]; [21],2.49 ± 0.79
same,DRI Value ED75,[6]; [22],5.13 ± 0.38
same,DRI Value ED90,[6]; [22],4.68 ± 0.43
same,DRI Value ED95,[6]; [22],4.43 ± 0.75
same,DRI Value ED75,[6]; [23],2.30 ± 0.73
same,DRI Value ED90,[6]; [23],2.15 ± 0.47
same,DRI Value ED95,[6]; [23],2.06 ± 0.33
same,IC50,[7],18.9 µM
same,CC50 at 7 days,[8],39.7 ± 6.29 µM
same,EC50,"[9]; Human immunodeficiency virus 1, HIV-1IIIB, H9/HIV-1IIIB chronically infected, p24",> 50 µM
same,Inhibition of HIV-1 replication in HIV-1IIIB chronically infected H9 cells,[9]; at a concentration of 50.00 µM,could not inhibit the replication
same,bioavailability,"[10]; BALB/c, mouse, plasma, female mice, oral doses, read-out: Oral bioavailability",8.5 ± 2.7%
same,bioavailability,"[10]; BALB/c, mouse, plasma, male mice, oral doses, read-out: Oral bioavailability",6.8 ± 1.3%
same,Tmax,"[10]; both, mouse, plasma, single oral administration at 30, 60, or 120 mg/kg, BALB/c mice, read-out: Time to peak plasma concentration",15 to 30 min
same,Cmax,"[10]; female, BALB/c, mouse, plasma, iv, 2 mg/kg, iv 2 mg/kg, female BALB/c mice, read-out: Cmax",1.1 µg/mL
same,Cmax,"[10]; female, BALB/c, mouse, plasma, po, 30 mg/kg, po 30 mg/kg, female BALB/c mice, read-out: Cmax",0.416 µg/mL
same,Cmax,"[10]; female, BALB/c, mouse, plasma, po, 60 mg/kg, po 60 mg/kg, female BALB/c mice, read-out: Cmax",1.1 µg/mL
same,Cmax,"[10]; female, BALB/c, mouse, plasma, po, 120 mg/kg, po 120 mg/kg, female BALB/c mice, read-out: Cmax",1.94 µg/mL
same,Cmax,"[10]; iv 2 mg/kg, female BALB/c mice, 2 mg/kg",1.0983 µg/mL
same,Cmax,"[10]; iv 2 mg/kg, male BALB/c mice, 2 mg/kg",1.0787 µg/mL
same,Cmax,"[10]; male, BALB/c, mouse, plasma, iv, 2 mg/kg, iv 2 mg/kg, male BALB/c mice, read-out: Cmax",1.08 µg/mL
same,Cmax,"[10]; male, BALB/c, mouse, plasma, po, 30 mg/kg, po 30 mg/kg, male BALB/c mice, read-out: Cmax",0.345 µg/mL
same,Cmax,"[10]; male, BALB/c, mouse, plasma, po, 60 mg/kg, po 60 mg/kg, male BALB/c mice, read-out: Cmax",0.749 µg/mL
same,Cmax,"[10]; male, BALB/c, mouse, plasma, po, 120 mg/kg, po 120 mg/kg, male BALB/c mice, read-out: Cmax",1.68 µg/mL
same,AUC(0-t),[10]; [24],0.461 µg·h/mL
same,clearance,[10]; [24],4.15 L/h/kg
same,Tmax,"[10]; mouse, plasma, iv 2 mg/kg, female BALB/c mice, read-out: Tmax",1.98 min
same,Vd,"[10]; mouse, plasma, iv 2 mg/kg, female BALB/c mice, read-out: Vd",14.1 L/kg
same,half-life,[10]; [24],141 min
same,AUC(0-t),[10]; [25],0.454 µg·h/mL
same,clearance,[10]; [25],4.23 L/h/kg
same,Tmax,"[10]; mouse, plasma, iv 2 mg/kg, male BALB/c mice, read-out: Tmax",1.98 min
same,Vd,"[10]; mouse, plasma, iv 2 mg/kg, male BALB/c mice, read-out: Vd",13.3 L/kg
same,half-life,[10]; [25],131 min
same,AUC(0-t),[10]; [26],0.488 µg·h/mL
same,bioavailability,"[10]; mouse, plasma, po 30 mg/kg, female BALB/c mice, read-out: F",7.05%
same,Tmax,"[10]; mouse, plasma, po 30 mg/kg, female BALB/c mice, read-out: Tmax",15 min
same,half-life,[10]; [26],65.4 min
same,AUC(0-t),[10]; [27],0.482 µg·h/mL
same,bioavailability,"[10]; mouse, plasma, po 30 mg/kg, male BALB/c mice, read-out: F",7.08%
same,Tmax,"[10]; mouse, plasma, po 30 mg/kg, male BALB/c mice, read-out: Tmax",30 min
same,half-life,[10]; [27],62.4 min
same,AUC(0-t),[10]; [28],1.42 µg·h/mL
same,bioavailability,"[10]; mouse, plasma, po 60 mg/kg, female BALB/c mice, read-out: F",10.2%
same,Tmax,"[10]; mouse, plasma, po 60 mg/kg, female BALB/c mice, read-out: Tmax",15 min
same,half-life,[10]; [28],71.4 min
same,AUC(0-t),[10]; [29],0.968 µg·h/mL
same,bioavailability,"[10]; mouse, plasma, po 60 mg/kg, male BALB/c mice, read-out: F",7.1%
same,Tmax,"[10]; mouse, plasma, po 60 mg/kg, male BALB/c mice, read-out: Tmax",30 min
same,half-life,[10]; [29],85.2 min
same,AUC(0-t),[10]; [30],3.58 µg·h/mL
same,bioavailability,"[10]; mouse, plasma, po 120 mg/kg, female BALB/c mice, read-out: F",12.9%
same,Tmax,"[10]; mouse, plasma, po 120 mg/kg, female BALB/c mice, read-out: Tmax",30 min
same,half-life,[10]; [30],49.2 min
same,AUC(0-t),[10]; [31],2.46 µg·h/mL
same,bioavailability,"[10]; mouse, plasma, po 120 mg/kg, male BALB/c mice, read-out: F",9.05%
same,Tmax,"[10]; mouse, plasma, po 120 mg/kg, male BALB/c mice, read-out: Tmax",30 min
same,half-life,[10]; [31],105 min
same,CL,[10]; [32],60.44 L/h/kg
same,Vd,[10]; [32],95.0 L/kg
same,CL,"[10]; po 30 mg/kg, male BALB/c mice",60.93 L/h/kg
same,Vd,"[10]; po 30 mg/kg, male BALB/c mice",91.4 L/kg
same,CL,[10]; [33],41.85 L/h/kg
same,Vd,[10]; [33],71.9 L/kg
same,CL,"[10]; po 60 mg/kg, male BALB/c mice",61.26 L/h/kg
same,Vd,"[10]; po 60 mg/kg, male BALB/c mice",125.1 L/kg
same,CL,[10]; [34],33.43 L/h/kg
same,Vd,[10]; [34],39.7 L/kg
same,CL,"[10]; po 120 mg/kg, male BALB/c mice",47.48 L/h/kg
same,Vd,"[10]; po 120 mg/kg, male BALB/c mice",120.2 L/kg
same,CC50 at 3 days,[11],28.1 ± 5.03 µM
same,IC50,[12],> 50 µM
